{
  "source": "ChEMBL document CHEMBL2074073",
  "about": "“The organic cation transporter OCT2 mediates the uptake of beta-adrenoceptor antagonists across the apical membrane of renal LLC-PK(1) cell monolayers” (Br J Pharmacol, 2000)",
  "molecules": {"B1": {"name": "Solute carrier family 22 member 2 (Homo sapiens) (protein)", "chain": "MPTTVDDVLEHGGEFHFFQKQMFFLLALLSATFAPIYVGIVFLGFTPDHRCRSPGVAELSLRCGWSPAEELNYTVPGPGPAGEASPRQCRRYEVDWNQSTFDCVDPLASLDTNRSRLPLGPCRDGWVYETPGSSIVTEFNLVCANSWMLDLFQSSVNVGFFIGSMSIGYIADRFGRKLCLLTTVLINAAAGVLMAISPTYTWMLIFRLIQGLVSKAGWLIGYILITEFVGRRYRRTVGIFYQVAYTVGLLVLAGVAYALPHWRWLQFTVSLPNFFFLLYYWCIPESPRWLISQNKNAEAMRIIKHIAKKNGKSLPASLQRLRLEEETGKKLNPSFLDLVRTPQIRKHTMILMYNWFTSSVLYQGLIMHMGLAGDNIYLDFFYSALVEFPAAFMIILTIDRIGRRYPWAASNMVAGAACLASVFIPGDLQWLKIIISCLGRMGITMAYEIVCLVNAELYPTFIRNLGVHICSSMCDIGGIITPFLVYRLTNIWLELPLMVFGVLGLVAGGLVLLLPETKGKALPETIEEAENMQRPRKNKEKMIYLQVQKLDIPLN"}},
  "type_in_all_cases": "functional, cell-based",
  "key": {"[1]": {"target": "T1, Solute carrier family 22 member 2 (Homo sapiens, UniProt O15244)", "T1 sequence (O15244 whole entry)": "B1 chain", "test": "(§1) TP_TRANSPORTER: uptake in OCT2-expressing mIMCD3 cells", "conditions": "mouse"}, "[2]": {"target": "T1, Solute carrier family 22 member 2", "test": "TP_TRANSPORTER: inhibition of cimetidine uptake (Cimetidine: 100 uM, Metoprolol: 1000 uM) in OCT2-expressing mIMCD3 cells", "conditions": "mouse, mimcd3, 1000 µM"}, "[3]": {"target": "T1, Solute carrier family 22 member 2", "test": "TP_TRANSPORTER: inhibition of cimetidine uptake (Cimetidine: 100 uM, Propranolol: 1000 uM) in OCT2-expressing mIMCD3 cells", "conditions": "mouse, mimcd3, 1000 µM"}, "[4]": {"substrate": "C[n+]1ccc(-c2ccccc2)cc1", "test": "as §1"}},
  "data": [
    {"molecule": "CN/C(=N/CCSCc1nc[nH]c1C)NC#N", "note": "[CIMETIDINE]", "values": [
      {"measurement": "Activity", "setting": "[1]", "value": "substrate [+]"}
    ]},
    {"molecule": "COCCc1ccc(OCC(O)CNC(C)C)cc1", "note": "(stereo not given) [METOPROLOL]", "values": [
      {"measurement": "Activity", "setting": "[2]", "value": "inhibitor [(at a rough estimate) 30 % of control]"}
    ]},
    {"molecule": "CC(C)NCC(O)COc1cccc2ccccc12", "note": "(stereo not given) [PROPRANOLOL]", "values": [
      {"measurement": "Activity", "setting": "[1]", "value": "substrate [+]"},
      {"measurement": "Activity", "setting": "[3]", "value": "inhibitor [(at a rough estimate) 10 % of control]"}
    ]},
    {"molecule": "B1", "values": [
      {"measurement": "Km", "setting": "[4]", "value": 22.2, "unit": "µM"}
    ]}
  ]
}
